PubChem BioAssay AID286 (DTP/NCI, 2004)
Values joined by “and” are separate entries in the source; they are usually repeats but may differ in a detail not shown here. Identical values can stand only once. Inconclusive results and toxic doses are left out.

Tested on: BDF1 mice, M5076 sarcoma ip, median survival T/C
Assay: NCI In Vivo Anticancer Drug Screen. Data for tumor model Sarcoma M5076 (intraperitoneal) in B6D2F1 (BDF1) mice
Conditions: endpoint: median survival time, higher = longer survival
Description: The antitumor activity of compounds was measured in mice bearing transplantable tumors. Survival or tumor size were measured and the results are expressed as the measurement made in the treated group (T) divided by the measurement made in the vehicle treated control group (C). The tumor model used in this assay is Sarcoma M5076 (intraperitoneal) in B6D2F1 (BDF1) mice

[1] = dose: 100.0 mg/kg/injection, schedule: Q04DX004 (ip), vehicle: saline

COc1cc(NCc2ccc3nc(N)nc(N)c3c2C)cc(OC)c1OC
T/C (dose: 10.0 mg/kg/injection, schedule: Q01DX009 (ip), vehicle: Klucel (hydroxypropylcellulose) (HPC)): 173 % of control | T/C (dose: 15.0 mg/kg/injection, schedule: Q04DX005 (ip), vehicle: Klucel (hydroxypropylcellulose) (HPC)): 168 % of control | T/C (dose: 20.0 mg/kg/injection, schedule: Q01DX009 (ip), vehicle: Klucel (hydroxypropylcellulose) (HPC)): 173 % of control | T/C (dose: 30.0 mg/kg/injection, schedule: Q04DX005 (ip), vehicle: Klucel (hydroxypropylcellulose) (HPC)): 171 % of control | T/C (dose: 60.0 mg/kg/injection, schedule: Q04DX005 (ip), vehicle: Klucel (hydroxypropylcellulose) (HPC)): 206 % of control

CN(C)c1nc(N(C)C)nc(N(C)C)n1
T/C (dose: 40.0 mg/kg/injection, schedule: Q04DX005 (ip), vehicle: Klucel (hydroxypropylcellulose) (HPC)): 160 % of control | T/C (dose: 80.0 mg/kg/injection, schedule: Q04DX005 (ip), vehicle: Klucel (hydroxypropylcellulose) (HPC)): 188 % of control | T/C (dose: 100.0 mg/kg/injection, schedule: Q04DX005 (ip), vehicle: Klucel (hydroxypropylcellulose) (HPC)): 112 % of control | T/C (dose: 160.0 mg/kg/injection, schedule: Q04DX005 (ip), vehicle: Klucel (hydroxypropylcellulose) (HPC)): 104 % of control | T/C (dose: 200.0 mg/kg/injection, schedule: Q04DX005 (ip), vehicle: Klucel (hydroxypropylcellulose) (HPC)): 119 % of control | T/C (dose: 400.0 mg/kg/injection, schedule: Q04DX005 (ip), vehicle: Klucel (hydroxypropylcellulose) (HPC)): 123 % of control

COc1cc(NCc2ccc3nc(N)nc(N)c3c2C)cc(OC)c1OC (tested in a mixture with another compound)
T/C (dose: 10.0 mg/kg/injection, schedule: Q04DX005 (ip), vehicle: water): 108 % of control | T/C (dose: 40.0 mg/kg/injection, schedule: Q04DX005 (ip), vehicle: water): 120 % of control

N[C@H](C(=O)O)[C@@H]1CC(Cl)=NO1
T/C (dose: 15.0 mg/kg/injection, schedule: Q04DX005 (ip), vehicle: saline): 113 % of control | T/C (dose: 60.0 mg/kg/injection, schedule: Q04DX005 (ip), vehicle: saline): 160 % of control | T/C (dose: 120.0 mg/kg/injection, schedule: Q04DX005 (ip), vehicle: saline): 195 % of control and 160 % of control

COc1cc2cc3c(c(O)c2c(O)c1/C=C/C(C)C)C(=O)CC(C)(OC(C)=O)C3 (centres undefined)
T/C (dose: 0.31 mg/kg/injection, schedule: Q01DX009 (ip), vehicle: Klucel (hydroxypropylcellulose) (HPC)): 111 % of control | T/C (dose: 0.63 mg/kg/injection, schedule: Q01DX009 (ip), vehicle: Klucel (hydroxypropylcellulose) (HPC)): 108 % of control and 115 % of control | T/C (dose: 1.25 mg/kg/injection, schedule: Q01DX009 (ip), vehicle: Klucel (hydroxypropylcellulose) (HPC)): 111 % of control and 119 % of control

C/C(=N\NC(=S)N1CC2CCC(CC2)C1)c1nccs1
T/C (dose: 12.5 mg/kg/injection, schedule: Q04DX004 (ip), vehicle: saline with Tween-80): 107 % of control | T/C (dose: 25.0 mg/kg/injection, schedule: Q04DX004 (ip), vehicle: saline with Tween-80): 106 % of control

COc1cccc2c1C(=O)c1c(O)c3c(c(O)c1C2=O)C[C@@](O)(C(=O)CO)C[C@@H]3OC1CC(N)C(O)C(C)O1 (some centres undefined)
T/C (dose: 0.5 mg/kg/injection, schedule: Q04DX005 (ip), vehicle: saline): 196 % of control | T/C (dose: 0.75 mg/kg/injection, schedule: Q04DX005 (ip), vehicle: saline): 204 % of control | T/C (dose: 1.0 mg/kg/injection, schedule: Q04DX005 (ip), vehicle: saline): 197 % of control | T/C (dose: 1.5 mg/kg/injection, schedule: Q01DX007 (ip), vehicle: saline): 171 % of control | T/C (dose: 1.5 mg/kg/injection, schedule: Q04DX005 (ip), vehicle: saline): 277 % of control | T/C (dose: 2.0 mg/kg/injection, schedule: Q04DX004 (ip), vehicle: saline): 160 % of control | T/C (dose: 2.0 mg/kg/injection, schedule: Q04DX005 (ip), vehicle: saline): 401 % of control | T/C (dose: 2.1 mg/kg/injection, schedule: Q01DX007 (ip), vehicle: saline): 176 % of control | T/C (dose: 3.0 mg/kg/injection, schedule: Q01DX007 (ip), vehicle: saline): 216 % of control | T/C (dose: 3.0 mg/kg/injection, schedule: Q04DX005 (ip), vehicle: saline): 308 % of control | T/C (dose: 3.4 mg/kg/injection, schedule: Q04DX003 (ip), vehicle: saline): 152 % of control | T/C (dose: 4.0 mg/kg/injection, schedule: Q04DX004 (ip), vehicle: saline): 190 % of control | T/C (dose: 4.0 mg/kg/injection, schedule: Q04DX005 (ip), vehicle: saline): 208 % of control | T/C (dose: 5.0 mg/kg/injection, schedule: Q04DX003 (ip), vehicle: saline): 176 % of control | T/C (dose: 6.0 mg/kg/injection, schedule: Q04DX005 (ip), vehicle: saline): 308 % of control | T/C (dose: 7.0 mg/kg/injection, schedule: Q01DX001 (ip), vehicle: saline): 159 % of control | T/C (dose: 7.5 mg/kg/injection, schedule: Q04DX003 (ip), vehicle: saline): 120 % of control | T/C (dose: 8.0 mg/kg/injection, schedule: Q04DX004 (ip), vehicle: saline): 190 % of control | T/C (dose: 10.0 mg/kg/injection, schedule: Q01DX001 (ip), vehicle: saline): 159 % of control | T/C (dose: 15.0 mg/kg/injection, schedule: Q01DX001 (ip), vehicle: saline): 185 % of control

COC1CC(C)C(OC)C2=CC(=O)C=C(NC(=O)/C(C)=C/C=C\C(C)C(OC(N)=O)/C(C)=C\C(C)C1OC)C2=O (centres undefined)
T/C (dose: 6.25 mg/kg/injection, schedule: Q04DX004 (ip), vehicle: saline + Tween-80 + alcohol): 124 % of control | T/C (dose: 12.5 mg/kg/injection, schedule: Q04DX004 (ip), vehicle: saline + Tween-80 + alcohol): 124 % of control

COc1cc2c(cc1OC)C1C(=O)c3ccc4c(c3OC1CO2)CC(C(C)(O)CO)O4 (centres undefined)
T/C (dose: 2.0 mg/kg/injection, schedule: Q01DX009 (ip), vehicle: DMSO): 110 % of control | T/C (dose: 4.0 mg/kg/injection, schedule: Q01DX009 (ip), vehicle: DMSO): 96 % of control | T/C (dose: 8.0 mg/kg/injection, schedule: Q01DX009 (ip), vehicle: DMSO): 99 % of control

CC[C@](O)(C(=O)O)c1cc2n(c(=O)c1CO)Cc1cc3ccccc3nc1-2
T/C (dose: 12.5 mg/kg/injection, schedule: Q04DX004 (ip), vehicle: saline): 124 % of control

C1CCC(NC2CCCCC2)CC1
T/C (dose: 25.0 mg/kg/injection, schedule: Q04DX004 (ip), vehicle: saline): 102 % of control | T/C (dose: 50.0 mg/kg/injection, schedule: Q04DX004 (ip), vehicle: saline): 98 % of control | T/C [1]: 100 % of control | T/C (dose: 200.0 mg/kg/injection, schedule: Q04DX004 (ip), vehicle: saline): 105 % of control | T/C (dose: 400.0 mg/kg/injection, schedule: Q04DX004 (ip), vehicle: saline): 105 % of control

O=C1c2ccccc2C(Cl)(c2ccc(Cl)cc2)c2ccc(Cl)cc21 (centres undefined)
T/C (dose: 50.0 mg/kg/injection, schedule: Q04DX004 (ip), vehicle: saline with Tween-80): 116 % of control | T/C (dose: 100.0 mg/kg/injection, schedule: Q04DX004 (ip), vehicle: saline with Tween-80): 107 % of control | T/C (dose: 200.0 mg/kg/injection, schedule: Q04DX004 (ip), vehicle: saline with Tween-80): 108 % of control | T/C (dose: 400.0 mg/kg/injection, schedule: Q04DX004 (ip), vehicle: saline with Tween-80): 100 % of control

O=c1[nH]cc(F)c(=O)[nH]1
T/C (dose: 6.25 mg/kg/injection, schedule: Q04DX005 (ip), vehicle: saline): 185 % of control | T/C (dose: 16.0 mg/kg/injection, schedule: Q01DX009 (ip), vehicle: saline): 117 % of control | T/C (dose: 21.6 mg/kg/injection, schedule: Q04DX004 (ip), vehicle: saline): 123 % of control | T/C (dose: 50.0 mg/kg/injection, schedule: Q04DX005 (ip), vehicle: saline): 112 % of control | T/C [1]: 154 % of control | T/C (dose: 100.0 mg/kg/injection, schedule: Q04DX005 (ip), vehicle: saline): 176 % of control

O=C(NC(Cc1ccc(I)cc1)C(=O)O)c1cccc(Br)c1 (centres undefined)
T/C (dose: 100.0 mg/kg/injection, schedule: Q04DX004 (ip), vehicle: Klucel (hydroxypropylcellulose) (HPC)): 116 % of control | T/C (dose: 200.0 mg/kg/injection, schedule: Q04DX004 (ip), vehicle: Klucel (hydroxypropylcellulose) (HPC)): 114 % of control | T/C (dose: 400.0 mg/kg/injection, schedule: Q04DX004 (ip), vehicle: Klucel (hydroxypropylcellulose) (HPC)): 99 % of control

CC(=O)OCC1OC(n2ncc(=O)[nH]c2=O)C(OC(C)=O)C1OC(C)=O (centres undefined)
T/C (dose: 150.0 mg/kg/injection, schedule: Q04DX004 (ip), vehicle: Klucel (hydroxypropylcellulose) (HPC)): 102 % of control | T/C (dose: 300.0 mg/kg/injection, schedule: Q04DX004 (ip), vehicle: Klucel (hydroxypropylcellulose) (HPC)): 102 % of control | T/C (dose: 600.0 mg/kg/injection, schedule: Q04DX004 (ip), vehicle: Klucel (hydroxypropylcellulose) (HPC)): 102 % of control | T/C (dose: 1200.0 mg/kg/injection, schedule: Q04DX004 (ip), vehicle: Klucel (hydroxypropylcellulose) (HPC)): 87 % of control
